We go through 15 compounds from US20260325533A1, “CDK INHIBITOR COMPOUNDS” (ALEKSIA THERAPEUTICS, INC., priority 2023, published 2026).

Each structure is given as a SMILES string. Read-outs that look alike come from different tables or passages of the source.

Common to all, as to type: biochemical
The target of one assay is CDK2/CCNE1 (Homo sapiens, UniProt P24941). Kind of assay: CDK2 homogeneous time-resolved fluorescence (HTRF) kinase assay. To be noted: CDK2/CCNE. Put shortly: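 IC50 derived from 11-point, half-log dilutions (usually top 10 μM) of compound, 1% DMSO. Kinase (3 nM CDK2/CCNE1) was preincubated with compound 20 min, then phosphorylated 50 nM ULight-4E-BP1 peptide at 1 mM ATP for 60 min, 23 °C. Europium-antibody TR-FRET read after EDTA stop.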

Another assay concerns the target CDK4/CCND3 (Homo sapiens, UniProt P11802). As to the kind of experiment: CDK4 homogeneous time-resolved fluorescence (HTRF) kinase assay. Particulars: CDK4/CCND. Put shortly: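 IC50 values were derived from 11-point half-log dilutions, usually starting at 10 μM. Compound was first held for 20 min at 23 °C with 1.5 nM CDK4/CCND3. 1 mM ATP and 50 nM ULight-eIF4E-BP1 (Thr37/46) substrate were then added for 60 min, and the TR-FRET 665 nm signal was measured after EDTA stop and Eu-anti-phospho-4E-BP1 detection.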

Another assay addresses CDK6/CCND1 (Homo sapiens, UniProt Q00534). As to the kind of experiment: CDK6 homogeneous time-resolved fluorescence (HTRF) kinase assay. Particulars: CDK6/CCND, 1 mM ATP. Put shortly: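 Recombinant CDK6/CCND1 (1 nM final) was preincubated with compound for 20 min at 23 °C in HEPES buffer with MgCl2, EGTA, DTT and Tween 20. Kinase reaction then ran 60 min at 23 °C with 1 mM ATP and 50 nM ULight-4E-BP1 (Thr37/46) peptide, and was stopped with EDTA.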
(In general: Time-resolved FRET reads energy transfer from a long-lived donor to a nearby acceptor.)

A further assay addresses CDK1/CCNB1 (Homo sapiens, UniProt P06493). Kind of assay: CDK1 homogeneous time-resolved fluorescence (HTRF) kinase assay. To be noted: CDK1/CCNB. Put shortly:
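Compounds, titrated 11 points in half-log steps typically from 10 μM, were incubated with enzyme for 20 min before ATP (1 mM) and ULight-labelled eIF4E-binding protein 1 peptide (50 nM) started a 60-min reaction at 23 °C. Phosphopeptide was detected by europium-antibody TR-FRET and IC50 values were derived.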

[1] abbreviates: <25 nM, read-out: CDK2/CCNE IC50, <25 nM.
The mark [2] stands for this setting: >250 nM, read-out: CDK4/CCND IC50, >250 nM.
Where [3] appears, read: >250 nM, read-out: CDK6/CCND IC50, >250 nM.
Setting [4] is: >250 nM, read-out: CDK1/CCNB IC50 >250 nM.
The mark [5] stands for this setting: 25-250 nM, read-out: CDK6/CCND IC50, 25-250 nM.
[6] abbreviates: 25-250 nM, read-out: CDK1/CCNB IC50, 25-250 nM.
[7] abbreviates: 25-250 nM, read-out: CDK2/CCNE IC50, 25-250 nM.

CDK1/CCNB1, sequence (P06493 whole entry): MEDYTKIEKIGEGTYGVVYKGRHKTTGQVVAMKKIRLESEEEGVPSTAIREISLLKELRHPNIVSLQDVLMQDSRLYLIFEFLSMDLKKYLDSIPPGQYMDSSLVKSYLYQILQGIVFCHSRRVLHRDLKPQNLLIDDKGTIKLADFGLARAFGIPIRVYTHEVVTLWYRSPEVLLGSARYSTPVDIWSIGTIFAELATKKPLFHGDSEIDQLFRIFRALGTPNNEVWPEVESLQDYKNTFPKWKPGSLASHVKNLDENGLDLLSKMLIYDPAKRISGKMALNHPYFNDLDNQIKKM
CDK1/CCNB1, sequence (P14635 whole entry partner): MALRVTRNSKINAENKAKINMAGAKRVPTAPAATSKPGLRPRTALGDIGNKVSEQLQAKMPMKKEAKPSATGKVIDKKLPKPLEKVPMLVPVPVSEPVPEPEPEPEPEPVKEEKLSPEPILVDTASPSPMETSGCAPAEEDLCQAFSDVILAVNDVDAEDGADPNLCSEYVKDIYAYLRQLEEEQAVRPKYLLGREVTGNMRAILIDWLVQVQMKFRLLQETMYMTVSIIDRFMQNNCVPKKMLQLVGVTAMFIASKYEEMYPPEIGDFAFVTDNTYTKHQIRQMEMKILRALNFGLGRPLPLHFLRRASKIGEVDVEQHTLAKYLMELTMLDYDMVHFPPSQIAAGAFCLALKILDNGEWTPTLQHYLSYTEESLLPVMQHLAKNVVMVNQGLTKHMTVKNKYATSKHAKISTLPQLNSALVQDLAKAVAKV
CDK6/CCND1, sequence (Q00534 whole entry): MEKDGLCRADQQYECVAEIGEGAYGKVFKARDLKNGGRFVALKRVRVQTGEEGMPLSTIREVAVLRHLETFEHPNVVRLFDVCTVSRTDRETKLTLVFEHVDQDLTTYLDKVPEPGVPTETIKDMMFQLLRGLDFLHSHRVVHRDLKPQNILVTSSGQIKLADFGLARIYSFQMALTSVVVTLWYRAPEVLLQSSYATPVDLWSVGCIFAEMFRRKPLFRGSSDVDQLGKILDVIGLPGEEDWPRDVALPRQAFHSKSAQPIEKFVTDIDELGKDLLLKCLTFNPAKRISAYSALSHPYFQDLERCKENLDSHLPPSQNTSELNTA
CDK6/CCND1, sequence (P24385 whole entry partner): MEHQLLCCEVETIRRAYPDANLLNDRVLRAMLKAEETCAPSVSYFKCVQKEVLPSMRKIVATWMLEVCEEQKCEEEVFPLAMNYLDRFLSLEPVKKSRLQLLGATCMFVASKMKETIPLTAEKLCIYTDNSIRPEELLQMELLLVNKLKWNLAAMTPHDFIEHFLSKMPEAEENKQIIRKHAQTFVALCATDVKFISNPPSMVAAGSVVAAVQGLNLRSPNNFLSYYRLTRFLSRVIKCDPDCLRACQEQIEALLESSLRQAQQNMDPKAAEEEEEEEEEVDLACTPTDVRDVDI
CDK4/CCND3, sequence (P11802 whole entry): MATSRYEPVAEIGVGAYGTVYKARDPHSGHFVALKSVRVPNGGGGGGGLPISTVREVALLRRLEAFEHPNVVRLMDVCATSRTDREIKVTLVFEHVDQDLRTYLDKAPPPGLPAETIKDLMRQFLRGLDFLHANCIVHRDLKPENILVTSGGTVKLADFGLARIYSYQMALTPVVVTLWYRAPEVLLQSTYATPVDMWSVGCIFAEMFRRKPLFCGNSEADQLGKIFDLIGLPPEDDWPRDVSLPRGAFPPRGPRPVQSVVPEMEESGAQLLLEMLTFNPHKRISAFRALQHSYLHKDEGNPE
CDK4/CCND3, sequence (P30281 whole entry partner): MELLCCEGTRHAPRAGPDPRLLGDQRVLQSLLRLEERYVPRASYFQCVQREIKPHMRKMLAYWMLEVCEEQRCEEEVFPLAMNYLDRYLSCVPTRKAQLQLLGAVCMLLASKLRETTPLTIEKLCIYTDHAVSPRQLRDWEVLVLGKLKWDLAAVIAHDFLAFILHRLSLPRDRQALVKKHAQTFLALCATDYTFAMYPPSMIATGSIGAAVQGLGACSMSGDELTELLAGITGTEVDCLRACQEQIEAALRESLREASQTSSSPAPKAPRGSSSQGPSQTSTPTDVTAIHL

Consider `Cc1c(-c2nccc3cnc(Nc4ccc(S(=O)(=O)Nc5ccc(C(F)(F)F)nn5)cc4)cc23)ccc2c1cnn2CC(C)(C)O` [Ex 799, 4-((5-(1-(2-hydroxy-2-methylpropyl)-4-methyl-1H-indazol-5-yl)-2,6-naphthyridin-3-yl)amino)-N-(6-(trifluoromethyl)pyridazin-3-yl)benzenesulfonamide], for which the IC50 is less than 25 nM on CDK2/CCNE1 (setting [1]), greater than 250 nM at CDK4/CCND3 (setting [2]), greater than 250 nM on CDK6/CCND1 (setting [3]) and greater than 250 nM at CDK1/CCNB1 (setting [4]).
For the compound `Cc1ccc(NS(=O)(=O)c2ccc(Nc3cc4c(-c5ccc6c(cnn6CC(C)(C)O)c5C)nccc4cn3)cc2)nn1` [Ex 800, 4-((5-(1-(2-hydroxy-2-methylpropyl)-4-methyl-1H-indazol-5-yl)-2,6-naphthyridin-3-yl)amino)-N-(6-methylpyridazin-3-yl)benzenesulfonamide], the IC50 on CDK2/CCNE1 (setting [1]) was less than 25 nM; at CDK4/CCND3 (25-250 nM, read-out: CDK4/CCND IC50, 25-250 nM), 25 to 250 nM; at CDK6/CCND1 (setting [5]) it was 25 to 250 nM; on CDK1/CCNB1 (setting [6]), 25 to 250 nM.
On to `Cc1c(-c2nccc3cnc(Nc4ccc(S(=O)(=O)Nc5cccc(C(C)(C)O)c5)cc4)cc23)ccc2c1cnn2CC(C)(C)O` [Ex 802, 4-((5-(1-(2-hydroxy-2-methylpropyl)-4-methyl-1H-indazol-5-yl)-2,6-naphthyridin-3-yl)amino)-N-(3-(2-hydroxypropan-2-yl)phenyl)benzenesulfonamide], for which the IC50 was less than 25 nM on CDK2/CCNE1 (setting [1]), greater than 250 nM on CDK4/CCND3 (setting [2]), greater than 250 nM at CDK6/CCND1 (setting [3]) and greater than 250 nM on CDK1/CCNB1 (setting [4]).
As for `Cc1c(-c2nccc3cnc(Nc4ccc(S(=O)(=O)Nc5cccc(N6CCOCC6)c5)cc4)cc23)ccc2c1cnn2CC(C)(C)O` [Ex 803, 4-((5-(1-(2-hydroxy-2-methylpropyl)-4-methyl-1H-indazol-5-yl)-2,6-naphthyridin-3-yl)amino)-N-(3-morpholinophenyl)benzenesulfonamide], the IC50 at CDK2/CCNE1 (setting [1]) was less than 25 nM; at CDK4/CCND3 (setting [2]), greater than 250 nM; at CDK6/CCND1 (setting [3]) it was greater than 250 nM; on CDK1/CCNB1 (setting [4]), greater than 250 nM.
With `COc1cccc(NS(=O)(=O)c2ccc(Nc3cc4c(-c5ccc6c(cnn6CC(C)(C)O)c5C)nccc4cn3)cc2)c1` [Ex 804, 4-((5-(1-(2-hydroxy-2-methylpropyl)-4-methyl-1H-indazol-5-yl)-2,6-naphthyridin-3-yl)amino)-N-(3-methoxyphenyl)benzenesulfonamide], the IC50 is less than 25 nM at CDK2/CCNE1 (setting [1]), greater than 250 nM on CDK4/CCND3 (setting [2]), greater than 250 nM on CDK6/CCND1 (setting [3]) and greater than 250 nM on CDK1/CCNB1 (setting [4]).
With `COc1cc(NS(=O)(=O)c2ccc(Nc3cc4c(-c5ccc6c(cnn6CC(C)(C)O)c5C)nccc4cn3)cc2)cc(OC)c1` [Ex 805, N-(3,5-dimethoxyphenyl)-4-((5-(1-(2-hydroxy-2-methylpropyl)-4-methyl-1H-indazol-5-yl)-2,6-naphthyridin-3-yl)amino)benzenesulfonamide], the IC50 at CDK2/CCNE1 (setting [1]) was less than 25 nM; on CDK4/CCND3 (setting [2]), greater than 250 nM; at CDK6/CCND1 (setting [3]), greater than 250 nM; at CDK1/CCNB1 (setting [4]), greater than 250 nM.
Turning to `Cc1c(-c2nccc3cnc(Nc4ccc(S(=O)(=O)Nc5cccc(C(F)(F)F)c5)cc4)cc23)ccc2c1cnn2CC(C)(C)O` [Ex 806, 4-((5-(1-(2-hydroxy-2-methylpropyl)-4-methyl-1H-indazol-5-yl)-2,6-naphthyridin-3-yl)amino)-N-(3-(trifluoromethyl)phenyl)benzenesulfonamide], the IC50 is 25 to 250 nM at CDK2/CCNE1 (setting [7]), greater than 250 nM at CDK4/CCND3 (setting [2]), greater than 250 nM on CDK6/CCND1 (setting [3]) and greater than 250 nM at CDK1/CCNB1 (setting [4]).
As for `Cc1cccc(NS(=O)(=O)c2ccc(Nc3cc4c(-c5ccc6c(cnn6CC(C)(C)O)c5C)nccc4cn3)cc2)c1` [Ex 807, 4-((5-(1-(2-hydroxy-2-methylpropyl)-4-methyl-1H-indazol-5-yl)-2,6-naphthyridin-3-yl)amino)-N-(m-tolyl)benzenesulfonamide], the IC50 on CDK2/CCNE1 (setting [1]) is less than 25 nM; on CDK4/CCND3 (setting [2]), greater than 250 nM; on CDK6/CCND1 (setting [3]), greater than 250 nM; at CDK1/CCNB1 (setting [4]), greater than 250 nM.
On to `Cc1cc(C)cc(NS(=O)(=O)c2ccc(Nc3cc4c(-c5ccc6c(cnn6CC(C)(C)O)c5C)nccc4cn3)cc2)c1` [Ex 808, N-(3,5-dimethylphenyl)-4-((5-(1-(2-hydroxy-2-methylpropyl)-4-methyl-1H-indazol-5-yl)-2,6-naphthyridin-3-yl)amino)benzenesulfonamide], for which the IC50 at CDK2/CCNE1 (setting [7]) was 25 to 250 nM; at CDK4/CCND3 (setting [2]) it was greater than 250 nM; on CDK6/CCND1 (setting [3]), greater than 250 nM; on CDK1/CCNB1 (setting [4]) it was greater than 250 nM.
Take `Cc1c(-c2nccc3cnc(Nc4ccc(S(=O)(=O)Nc5ccccc5)cc4)cc23)ccc2c1cnn2CC(C)(C)O` [Ex 809, 4-((5-(1-(2-hydroxy-2-methylpropyl)-4-methyl-1H-indazol-5-yl)-2,6-naphthyridin-3-yl)amino)-N-phenylbenzenesulfonamide]: the IC50 is less than 25 nM at CDK2/CCNE1 (setting [1]), greater than 250 nM at CDK4/CCND3 (setting [2]), greater than 250 nM on CDK6/CCND1 (setting [3]) and greater than 250 nM at CDK1/CCNB1 (setting [4]).
On to `Cc1c(-c2nccc3cnc(Nc4ccc(S(=O)(=O)Nc5ccc(C(C)(C)O)cn5)cc4)cc23)ccc2c1cnn2CC(C)(C)O` [Ex 810, 4-((5-(1-(2-hydroxy-2-methylpropyl)-4-methyl-1H-indazol-5-yl)-2,6-naphthyridin-3-yl)amino)-N-(5-(2-hydroxypropan-2-yl)pyridin-2-yl)benzenesulfonamide], for which the IC50 was less than 25 nM on CDK2/CCNE1 (setting [1]), greater than 250 nM at CDK4/CCND3 (setting [2]), 25 to 250 nM at CDK6/CCND1 (setting [5]) and greater than 250 nM on CDK1/CCNB1 (setting [4]).
On to `Cc1c(-c2nccc3cnc(Nc4ccc(S(=O)(=O)Nc5cccc(C(C)(C)O)n5)cc4)cc23)ccc2c1cnn2CC(C)(C)O` [Ex 811, 4-((5-(1-(2-hydroxy-2-methylpropyl)-4-methyl-1H-indazol-5-yl)-2,6-naphthyridin-3-yl)amino)-N-(6-(2-hydroxypropan-2-yl)pyridin-2-yl)benzenesulfonamide], for which the IC50 at CDK2/CCNE1 (setting [1]) is less than 25 nM; at CDK4/CCND3 (setting [2]) it was greater than 250 nM; on CDK6/CCND1 (setting [3]), greater than 250 nM; at CDK1/CCNB1 (setting [6]), 25 to 250 nM.
Regarding `COc1cccc(NS(=O)(=O)c2ccc(Nc3cc4c(-c5ccc6c(cnn6CC(C)(C)O)c5C)nccc4cn3)cc2)n1` [Ex 812, 4-((5-(1-(2-hydroxy-2-methylpropyl)-4-methyl-1H-indazol-5-yl)-2,6-naphthyridin-3-yl)amino)-N-(6-methoxypyridin-2-yl)benzenesulfonamide], the IC50 was less than 25 nM on CDK2/CCNE1 (setting [1]), greater than 250 nM at CDK4/CCND3 (setting [2]), greater than 250 nM at CDK6/CCND1 (setting [3]) and greater than 250 nM at CDK1/CCNB1 (setting [4]).
Consider `COc1ccnc(NS(=O)(=O)c2ccc(Nc3cc4c(-c5ccc6c(cnn6CC(C)(C)O)c5C)nccc4cn3)cc2)c1` [Ex 813, 4-((5-(1-(2-hydroxy-2-methylpropyl)-4-methyl-1H-indazol-5-yl)-2,6-naphthyridin-3-yl)amino)-N-(4-methoxypyridin-2-yl)benzenesulfonamide], for which the IC50 is less than 25 nM on CDK2/CCNE1 (setting [1]), greater than 250 nM on CDK4/CCND3 (setting [2]), 25 to 250 nM at CDK6/CCND1 (setting [5]) and greater than 250 nM on CDK1/CCNB1 (setting [4]).
Regarding `COc1cc(NS(=O)(=O)c2ccc(Nc3cc4c(-c5ccc6c(cnn6CC(C)(C)O)c5C)nccc4cn3)cc2)nc(OC)c1` [Ex 814, N-(4,6-dimethoxypyridin-2-yl)-4-((5-(1-(2-hydroxy-2-methylpropyl)-4-methyl-1H-indazol-5-yl)-2,6-naphthyridin-3-yl)amino)benzenesulfonamide], the IC50 at CDK2/CCNE1 (setting [1]) is less than 25 nM; on CDK4/CCND3 (setting [2]) it was greater than 250 nM; on CDK6/CCND1 (setting [3]), greater than 250 nM; at CDK1/CCNB1 (setting [4]), greater than 250 nM.
